{
  "source": "patent US9801880B2",
  "about": "“Use of kinase inhibitors” (BerGenBio AS, priority 2013, dated 2017)",
  "key": {"Abl": {"biological_target": "Abl (Homo sapiens, UniProt P00519)", "sequence (P00519 whole entry)": "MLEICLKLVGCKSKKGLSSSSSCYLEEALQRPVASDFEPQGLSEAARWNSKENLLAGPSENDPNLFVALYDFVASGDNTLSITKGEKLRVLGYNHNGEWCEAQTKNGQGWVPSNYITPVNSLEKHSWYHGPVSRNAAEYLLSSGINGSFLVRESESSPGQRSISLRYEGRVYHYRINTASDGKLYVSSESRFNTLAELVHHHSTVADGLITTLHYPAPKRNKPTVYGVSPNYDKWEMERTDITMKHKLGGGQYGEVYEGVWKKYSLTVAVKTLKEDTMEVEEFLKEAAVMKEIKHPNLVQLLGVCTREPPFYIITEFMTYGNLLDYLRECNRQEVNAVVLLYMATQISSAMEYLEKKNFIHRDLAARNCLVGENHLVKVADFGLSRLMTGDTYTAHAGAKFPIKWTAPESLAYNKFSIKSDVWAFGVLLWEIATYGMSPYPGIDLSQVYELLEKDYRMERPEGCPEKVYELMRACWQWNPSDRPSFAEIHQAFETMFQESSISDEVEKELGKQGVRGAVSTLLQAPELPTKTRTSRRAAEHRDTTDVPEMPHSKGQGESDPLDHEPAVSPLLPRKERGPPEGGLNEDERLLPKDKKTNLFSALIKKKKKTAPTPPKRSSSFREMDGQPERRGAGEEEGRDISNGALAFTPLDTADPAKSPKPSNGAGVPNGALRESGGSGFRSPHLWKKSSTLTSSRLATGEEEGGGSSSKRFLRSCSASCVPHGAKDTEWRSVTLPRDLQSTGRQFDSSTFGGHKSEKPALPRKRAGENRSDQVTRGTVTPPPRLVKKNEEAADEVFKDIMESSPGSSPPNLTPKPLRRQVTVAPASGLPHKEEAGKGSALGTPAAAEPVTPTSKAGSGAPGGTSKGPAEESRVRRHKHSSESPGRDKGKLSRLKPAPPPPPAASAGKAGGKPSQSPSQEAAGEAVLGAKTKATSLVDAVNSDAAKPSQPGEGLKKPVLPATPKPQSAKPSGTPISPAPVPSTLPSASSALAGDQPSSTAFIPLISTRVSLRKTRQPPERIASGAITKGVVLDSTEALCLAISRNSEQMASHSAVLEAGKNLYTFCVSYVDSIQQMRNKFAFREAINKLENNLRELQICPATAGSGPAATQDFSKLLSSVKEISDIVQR", "assay": "biochemical", "text": "(§1) Detailed assay methodologies can be found in the relevant references cited herein, or in the KinaseProfiler Service Assay Protocols (v54, 2011) available from EMD Millipore (www.emdmillipore.com), or from the KinomeScan website (www.kinomescan.com), as appropriate. (For a more detailed description of KINOMEscan's assay technology, see: Fabian et al. A small molecule-kinase interaction map for clinical kinase inhibitors. Nat. Biotechnol. 23, 329-336 (2005)). A summary is provided below.\n(§2) KinomeScan™ assays (DiscoveRx Corporation, San Diego, Calif., USA) are active-site-directed competition binding assays. […] The amount of kinase captured in test versus control samples is determined by using a qPCR method that detects the associated DNA label on each kinase molecule. Dissociation constants (Kd) for test compound-kinase interactions are calculated by measuring the amount of kinase captured on the solid support as a function of the test compound concentration."}, "c-Kit": {"biological_target": "c-Kit (Homo sapiens, UniProt P10721)", "sequence (P10721 26-976)": "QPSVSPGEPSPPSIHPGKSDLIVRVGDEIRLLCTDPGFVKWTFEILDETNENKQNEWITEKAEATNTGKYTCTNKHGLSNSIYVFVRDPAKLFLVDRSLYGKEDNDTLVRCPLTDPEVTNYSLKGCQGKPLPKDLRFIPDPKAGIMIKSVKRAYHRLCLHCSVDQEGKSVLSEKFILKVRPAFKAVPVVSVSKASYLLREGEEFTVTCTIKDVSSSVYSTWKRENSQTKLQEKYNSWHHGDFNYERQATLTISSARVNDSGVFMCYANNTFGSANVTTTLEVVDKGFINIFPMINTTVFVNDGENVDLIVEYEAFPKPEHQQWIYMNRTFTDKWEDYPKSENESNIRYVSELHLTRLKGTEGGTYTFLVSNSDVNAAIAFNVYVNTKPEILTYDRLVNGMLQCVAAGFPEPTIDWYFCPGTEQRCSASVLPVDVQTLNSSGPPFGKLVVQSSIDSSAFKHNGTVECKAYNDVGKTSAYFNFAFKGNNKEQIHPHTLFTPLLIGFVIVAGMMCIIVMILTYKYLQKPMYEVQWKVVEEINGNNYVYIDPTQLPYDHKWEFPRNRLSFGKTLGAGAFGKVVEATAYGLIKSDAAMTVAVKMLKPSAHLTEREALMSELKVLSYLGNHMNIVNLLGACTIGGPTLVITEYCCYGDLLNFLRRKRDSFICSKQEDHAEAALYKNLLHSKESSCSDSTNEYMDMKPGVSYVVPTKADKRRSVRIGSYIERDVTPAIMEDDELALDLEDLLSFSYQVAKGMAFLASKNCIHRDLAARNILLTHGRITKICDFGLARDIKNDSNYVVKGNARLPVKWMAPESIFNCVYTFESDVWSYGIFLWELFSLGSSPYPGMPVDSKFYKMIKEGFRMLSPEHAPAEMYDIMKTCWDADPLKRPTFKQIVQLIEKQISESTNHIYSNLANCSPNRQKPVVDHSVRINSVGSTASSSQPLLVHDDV", "assay": "biochemical", "text": "as §1, §2"}, "[1]": {"biological_target": "Other mutations of Abl kinase that arise during development of resistance (Homo sapiens, UniProt P00519)", "sequence (P00519 whole entry, looked up, change not shown)": "as the sequence (P00519 whole entry) above", "assay": "Inhibition of other Abl kinase resistance mutations (biochemical assays)", "settings": "read-out: inhibition range, other mutations of Abl kinase", "text": "as §1\nKinaseProfiler™ assays (EMD Millipore Corp. Billerica, Mass., USA) are […] with purified or partially-purified human kinases. Most of the KinaseProfiler™ assays are conducted in 20 mM MOPS, 1 mM EDTA, 0.01% Brij-35, 5% Glycerol, 0.1% b-mercaptoethanol, 1 mg/mL BSA. The assay involves the transfer of ^32P from γ-^32P-ATP to the target peptide, followed by washing and trapping of the labeled peptide on a filter. The concentration of γ-^32P-ATP used was at the established Km for ATP."}, "[2]": {"test_system": "Ba/F3 cells expressing T315I mutated Bcr-Abl1 fusion protein", "assay": "WST-1 cell viability, Ba/F3 cells expressing Bcr-Abl1 T315I", "format": "cell-based", "settings": "Mus musculus, BaF3, 48 hours, serum free, read-out: IB50 cell viability", "experimental": "Ba/F3 cells either stably overexpressing Bcr-Abl1 (A) or the mutant Bcr-Abl1 T315I (B) were cultured overnight in serum free RPMI-1640 media supplemented with 2 mM glutamine, 100 U/mL penicillin and 100 μg/mL streptomycin (Sigma-Aldrich). The following day, cells were plated in a 96-well plate with each well containing 2000 cells in a volume of 100 μl serum free RMPI media. […] The 96 well plates were incubated for 48 hours, and cell viability was measured in a WST-1 assay (Roche). Briefly, 5 μl WST-1 solution was added to each well and the 96-well plate was incubated for another 2 hours. The readout was performed in an ELSA reader at 480 nm. (measure)/620 nm (reference). Subsequent data analysis was performed with Microsoft Excel 2003 and GraphPad Prism 4.0."}, "c-Kit (D816V)": {"biological_target": "c-Kit (D816V) (Homo sapiens, UniProt P10721, D816V)", "sequence (P10721 26-976 D816V)": "as the sequence (P10721 26-976) above, with D791V counted along it", "assay": "KinaseProfiler kinase activity assay", "format": "biochemical", "design": "purchased EMD Millipore Corp. (KinaseProfiler service)", "description": "KinaseProfiler™ assays (EMD Millipore Corp. Billerica, Mass., USA) are radioligand binding assays with purified or partially-purified human kinases. Most of the KinaseProfiler™ assays are conducted in 20 mM MOPS, 1 mM EDTA, 0.01% Brij-35, 5% Glycerol, 0.1% b-mercaptoethanol, 1 mg/mL BSA. The assay involves the transfer of ^32P from γ-^32P-ATP to the target peptide, followed by washing and trapping of the labeled peptide on a filter. The concentration of γ-^32P-ATP used was at the established Km for ATP."}},
  "note": "pIC50, pKd: −log10 of the molar value.",
  "data": [
    {"smiles": "Nc1nc(Nc2ccc3c(c2)CC[C@@H](N2CCCC2)CC3)nn1-c1cc2c(nn1)-c1ccccc1CCC2", "note": "[Compound A, 1-(6,7-dihydro-5H-benzo[6,7]cyclohepta[1,2-c]pyridazine-3-yl)-N^3-(7-(S)-(pyrrolidin-1-yl)-6,7,8,9-tetrahydro-5H-benzo[7]annulene-2-yl)-1H-1,2,4-triazole-3,5-diamine]", "values": [
      {"measurement": "pKd", "setting": "Abl", "value": 7.28},
      {"measurement": "pKd", "setting": "c-Kit", "value": 6.98},
      {"measurement": "pIC50", "setting": "[1]", "value": "7.49 to 7.80"},
      {"measurement": "pIC50", "setting": "[2]", "value": 6.24},
      {"measurement": "pIC50", "setting": "c-Kit (D816V)", "value": 6.75}
    ]}
  ]
}
